In US8647827B2, “Fluorescent substrates for neurotransmitter transporters” (Vanderbilt University, priority 2006, dated 2014):
Where two headings read alike, the source gives them in different places.

Experiments:
SERT [1] = target: T1, SERT (Homo sapiens, UniProt P31645); settings: cited from earlier work
Target sequence in this assay (P31645 whole entry, species assumed): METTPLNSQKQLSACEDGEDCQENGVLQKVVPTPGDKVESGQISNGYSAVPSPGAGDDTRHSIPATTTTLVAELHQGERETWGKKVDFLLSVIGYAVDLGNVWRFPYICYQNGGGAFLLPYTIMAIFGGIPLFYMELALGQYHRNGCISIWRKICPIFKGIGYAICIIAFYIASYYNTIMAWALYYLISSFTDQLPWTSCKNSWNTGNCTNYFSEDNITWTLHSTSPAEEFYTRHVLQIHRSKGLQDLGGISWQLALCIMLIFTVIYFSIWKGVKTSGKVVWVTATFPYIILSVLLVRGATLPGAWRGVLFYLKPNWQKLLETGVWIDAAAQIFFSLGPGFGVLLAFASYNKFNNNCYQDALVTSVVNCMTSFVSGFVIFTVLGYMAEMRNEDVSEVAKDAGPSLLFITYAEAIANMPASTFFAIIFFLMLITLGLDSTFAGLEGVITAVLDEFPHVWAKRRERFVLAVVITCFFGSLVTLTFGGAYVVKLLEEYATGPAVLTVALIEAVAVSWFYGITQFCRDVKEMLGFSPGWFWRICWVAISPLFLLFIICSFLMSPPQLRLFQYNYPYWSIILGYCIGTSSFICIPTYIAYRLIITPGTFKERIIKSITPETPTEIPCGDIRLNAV

NET [2] = target: T2, NET (Homo sapiens, UniProt P23975); settings: previously reported, U.S. Publication No. 20040115703; cited from earlier work
DAT [3] = target: DAT (Homo sapiens, UniProt Q01959); settings: previously reported, U.S. Publication No. 20040115703; cited from earlier work
DAT (Homo sapiens, UniProt Q01959), sequence (Q01959 whole entry, species assumed): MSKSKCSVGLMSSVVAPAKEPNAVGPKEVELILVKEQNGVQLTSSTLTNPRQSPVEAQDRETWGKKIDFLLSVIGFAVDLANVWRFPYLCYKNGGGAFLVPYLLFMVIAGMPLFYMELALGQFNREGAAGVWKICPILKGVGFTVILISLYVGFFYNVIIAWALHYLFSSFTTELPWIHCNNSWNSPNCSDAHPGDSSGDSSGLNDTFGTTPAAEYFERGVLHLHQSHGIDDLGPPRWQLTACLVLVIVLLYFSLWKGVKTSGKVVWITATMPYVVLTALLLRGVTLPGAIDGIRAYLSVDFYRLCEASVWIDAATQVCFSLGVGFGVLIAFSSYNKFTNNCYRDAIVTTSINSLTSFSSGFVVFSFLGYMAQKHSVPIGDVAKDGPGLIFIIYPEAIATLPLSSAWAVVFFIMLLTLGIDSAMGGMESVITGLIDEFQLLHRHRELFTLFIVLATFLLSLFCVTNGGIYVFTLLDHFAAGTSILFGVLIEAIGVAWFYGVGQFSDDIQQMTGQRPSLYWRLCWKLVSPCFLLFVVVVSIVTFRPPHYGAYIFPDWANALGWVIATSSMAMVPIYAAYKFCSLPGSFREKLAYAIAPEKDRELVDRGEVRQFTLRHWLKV

SERT [4] = target: T1, SERT; assay: IDT307 accumulation/transport by fluorescence, SERT; format: cell-based; set-up: expressed in transfected cells
Procedure: FIG. 3—IDT307 accumulation using a FlexStation™ fluorimeter. IDT307 accumulation using the FlexStation fluorimeter (excitation 440 nm/emission filter 595 nm). LLC non-transfected and hSERT expressing (control) cells were cultured in separate wells of a 96-well plate until confluent. The accumulation of IDT307 (10 μM) in these wells was then monitored in the presence and absence of paroxetine (1 μM) using the FlexStation.
FIGS. 5A-C—Kinetics of IDT307 accumulation in hSERT using the FlexStation™ fluorimeter. Kinetics of IDT307 accumulation in hSERT using the FlexStation fluorimeter. hSERT expressing cells were cultured in wells of a 96-well plate until confluent. […] SERT specific accumulation for each concentration of IDT307 was then calculated from specific uptake values (total uptake—inhibitor treated uptake).
4-(4-(dimethylamino)phenyl)-1-methylpyridinium iodide, referred to herein as IDT307, is a dye with optical activity that has been discussed by a number of different researchers (Bulgarevich et al., 1992; Kuo, 1978; Coe et al., 2003; Zauhar et al., 1995; Lyapustina et al., 1993). […] The IDT307 fluorescence assays of the invention provide detailed mechanistic information about transport. For example, temporal and spatial resolution of transport, transport kinetics, affinity for substrate, turnover rates, surface expression, and binding constants may be measured. […]
Target sequence in this assay (P31645 whole entry): as the sequence (P31645 whole entry, species assumed) above

[5] = Fluorescence spectra of intracellular IDT307; format: physicochemical
Procedure: (§1) FIG. 7—Imaging IDT307 with Zeiss LSM-510 Confocal Meta Detector. LLC Cells expressing rDAT were exposed to 10 μM IDT307 for 1 hr before rinsing with KRH buffer and imaging with a Zeiss LSM-510 confocal microscope using the meta detector. Quantification of fluorescence at each wavelength for selected regions of interest was performed using ImageJ analysis software.
FIG. 8—Fluorescence Spectra of Intracellular IDT307. IDT307 maximum absorption=420 nm, maximum emission=510 nm.

NET [6] = target: T2, NET; assay: IDT307 accumulation/transport by time-resolved fluorescence microscopy in HEK cells expressing hNET; format: cell-based; set-up: expressed in transfected cells; host or cells: HEK cells
Source text: (§2) 4-(4-(dimethylamino)phenyl)-1-methylpyridinium iodide, referred to herein as IDT307, is a dye with optical activity that has been discussed by a number of different researchers (Bulgarevich et al., 1992; Kuo, 1978; Coe et al., 2003; Zauhar et al., 1995; Lyapustina et al., 1993). […] IDT307 fluorescent microscopy permits localization of transport activity in single cells and neuronal processes. The IDT307 fluorescent microscopy methods of the invention also permits analysis of many cells, while retaining information about single cells. The IDT307 fluorescence assays of the invention provide detailed mechanistic information about transport. For example, temporal and spatial resolution of transport, transport kinetics, affinity for substrate, turnover rates, surface expression, and binding constants may be measured. Furthermore, features such as voltage dependence of neurotransmitter accumulation can be assessed under voltage clamp using IDT307 fluorescent microscopy.
Fluorescent microscopy is used to measure transport using IDT307 which is a fluorescent substrate for several neurotransmitter transporters. Cells that either endogenously or exogenously express a […] are isolated and plated on glass bottom Petri-dishes or multi-well plates that may typically be coated with poly-L-lysine or any other cell adhesive agent. Cells are typically cultured for three or more days. […]

DAT [7] = target: T3, DAT (Rattus norvegicus, UniProt P23977); assay: IDT307 accumulation/transport by fluorescence, DAT; format: cell-based
T3 construct: expressed in transfected cells; host or cells: LLC cells
T3 sequence (P23977 whole entry): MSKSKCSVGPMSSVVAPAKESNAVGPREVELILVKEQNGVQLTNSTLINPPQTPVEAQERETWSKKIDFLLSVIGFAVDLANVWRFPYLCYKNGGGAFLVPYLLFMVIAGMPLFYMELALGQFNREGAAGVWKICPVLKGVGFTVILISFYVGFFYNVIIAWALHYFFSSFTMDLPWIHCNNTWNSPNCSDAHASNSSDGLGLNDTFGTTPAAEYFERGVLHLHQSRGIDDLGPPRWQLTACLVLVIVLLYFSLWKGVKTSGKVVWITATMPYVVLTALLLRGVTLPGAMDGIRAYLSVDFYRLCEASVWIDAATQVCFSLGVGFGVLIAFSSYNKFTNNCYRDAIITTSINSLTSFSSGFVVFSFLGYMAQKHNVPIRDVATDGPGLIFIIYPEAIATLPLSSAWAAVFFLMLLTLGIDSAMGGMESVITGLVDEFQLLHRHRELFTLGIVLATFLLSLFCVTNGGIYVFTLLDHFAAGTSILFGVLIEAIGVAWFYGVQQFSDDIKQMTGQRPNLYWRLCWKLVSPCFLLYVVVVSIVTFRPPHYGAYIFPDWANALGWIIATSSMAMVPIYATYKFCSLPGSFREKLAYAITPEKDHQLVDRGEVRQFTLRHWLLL
Procedure: as §1, §2

SERT [8] = target: T1, SERT; assay: [3H]5-HT uptake inhibition in LLC cells stably expressing hSERT; format: cell-based; set-up: expressed in transfected cells; settings: [3H]5-HT 30 nM, 5 min at 37° C.
Procedure: FIG. 2—[^3H]5-HT uptake inhibition by IDT307 of SERT. […] LLC cells stably expressing hSERT were incubated with [^3H]5-HT (30 nM) in the presence of increasing concentrations of IDT307 (10^−12 to 10^−3) for 5 min at 37° C. Specific uptake was defined as total uptake minus uptake in the presence of the inhibitor paroxetine 1 μM.
Target sequence in this assay (P31645 whole entry): as the sequence (P31645 whole entry, species assumed) above

T2 sequence (P23975 whole entry): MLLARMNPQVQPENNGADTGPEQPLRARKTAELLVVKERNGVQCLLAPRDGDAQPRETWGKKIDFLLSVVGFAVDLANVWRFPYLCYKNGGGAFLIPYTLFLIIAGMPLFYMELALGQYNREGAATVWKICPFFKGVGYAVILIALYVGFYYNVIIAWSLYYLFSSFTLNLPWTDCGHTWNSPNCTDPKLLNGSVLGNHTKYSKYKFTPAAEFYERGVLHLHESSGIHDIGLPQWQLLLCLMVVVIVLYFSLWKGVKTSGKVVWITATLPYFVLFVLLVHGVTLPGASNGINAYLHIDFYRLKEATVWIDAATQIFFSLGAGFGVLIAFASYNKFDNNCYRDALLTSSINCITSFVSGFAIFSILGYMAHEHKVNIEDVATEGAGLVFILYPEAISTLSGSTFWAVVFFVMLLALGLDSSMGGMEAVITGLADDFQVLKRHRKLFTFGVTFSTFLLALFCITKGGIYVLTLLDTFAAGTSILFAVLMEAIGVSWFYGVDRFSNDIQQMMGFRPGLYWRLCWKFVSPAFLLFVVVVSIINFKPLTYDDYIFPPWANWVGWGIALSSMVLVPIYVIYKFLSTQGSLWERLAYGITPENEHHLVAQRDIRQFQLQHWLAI

Compound | effectiveness as a substrate for the serotonin transporter (SERT [1]) | transport by SERT (SERT [1]; previously reported, U.S. Publication No. 20040115703) | transport by NET (NET [2]) | transport by DAT (DAT [3]) | potency of IDT307 accumulation for SERT (SERT [4]) | transport by SERT (SERT [4]) | maximum absorption [5] | maximum emission [5] | potency of IDT307 accumulation for hNET (NET [6]) | transport by NET (NET [6]) | potency of IDT307 accumulation for DAT (DAT [7]) | transport by DAT (DAT [7]) | [3H]5-HT uptake inhibition (SERT [8])
CN(C)c1ccc(C=Cc2cc[n+](C)cc2)cc1 [ASP^+, 4-(4-dimethylaminostyrl)-N-methylpyridinium] | only minimally effective as a substrate | transported | transported | transported |  |  |  |  |  |  |  |  | 
CN(C)c1ccc(-c2cc[n+](C)cc2)cc1.[I-] [IDT307, 4-(4-(dimethylamino)phenyl)-1-methylpyridinium iodide] |  |  |  |  | sub-mM potency | transported | 420 nm | 510 nm | sub-mM potency | transported | sub-mM potency | transported | competes for [^3H]5-HT uptake
